Laboratory results published in US20260250412A1, “COMBINATION OF ANTIBODY-DRUG CONJUGATE AND ANTI-PD-1 ANTIBODY, AND USE THEREOF” (GENEQUANTUM HEALTHCARE (SUZHOU) CO., LTD., priority 2023, published 2026).

Legend:
[1] = tested on: NCI-N87 mouse xenograft tumor; test: In vivo efficacy, NCI-N87 mouse xenograft tumor; design: species or system BALB/c nude mice; conditions: Table 14, BIW*6, 3 mg/kg
[2] = tested on: human breast cancer BR-05-0028 model; test: In vivo efficacy, human breast cancer BR-05-0028 mouse xenograft tumor; design: species or system BALB/c nude mice
Description: II. The tumor diameter was measured with a vernier caliper and the tumor volume was calculated according to the formula V=0.5a×b^2 (where a is the longest diameter of the tumor and b is the shortest diameter of the tumor). […] Animals in each group were administered by tail vein injection, and the control group was given an equal volume of vehicle. […] T/C and TGI values were calculated using tumor volume. The calculation formula is as follows: T/C %=TRTV/CRTV×100% (TRTV: RTV of the treatment group; CRTV: RTV of the vehicle control group). The relative tumor volume (RTV) was calculated based on the results of tumor measurement, and the calculation formula was RTV=Vt/V0, where V0 was the average tumor volume measured at the time of grouping (i.e., D0), Vt was the average tumor volume at one measurement, and TRTV and CRTV took the same day of data.
The human breast cancer BR-05-0028 model (IHC 3±) was derived from tumor samples resected in clinical surgery. The tumor samples were inoculated into nude mice at the P0 generation, and the tumor tissue used in this example was the P5 generation. Tumor tissue with a volume of about 30 mm^3 was subcutaneously inoculated into the right back dorsum of SPF female BALB/c nude mice aged 6-8 weeks.

[3] = tested on: MDA-MB-468 mouse xenograft tumor; test: In vivo efficacy, MDA-MB-468 mouse xenograft tumor; design: species or system BALB/c Nude mice; conditions: 4.5 mg/kg, intravenously
Description: The MDA-MB-468 tumor cells (ATCC, HTB-132) were maintained in vitro as a monolayer culture in L-15 medium supplemented with 10% fetal bovine serum and 1% Antibiotic-Antimycotic at 37° C. in an atmosphere of 0% CO2 in air. The cells growing in an exponential growth phase will be harvested and counted for tumor inoculation. For in vivo anti-tumor efficacy study, 10×10^6 MDA-MB-468 human breast cancer cells (Trop2 positive) in 0.2 mL of PBS with Matrigel (1:1) were inoculated subcutaneously in the right flank in BALB/c Nude mice. […] The tumor volume was measured twice weekly with a caliper. T/C and TGI values were calculated using tumor volume.

[4] = Table 15, BIW*6, 5 mg/kg, Day 21

## Trodelvy
[1]
  Tumor volume (mm^3) Day 32: 864 ± 114 mm^3
[1]; Day 32
  T/C (%): 65.85%
  TGI (%): 41.10%
[1]; baseline at grouping
  Tumor volume (mm^3) Day 0: 227 ± 21 mm^3
[2]; Table 15, BIW*6, 5 mg/kg
  Tumor volume (mm^3) Day 21: 5 ± 2 mm^3
[2]; [4]
  T/C (%): 0.35%
  TGI (%): 111.76%
[2]; Table 15, BIW*6, 5 mg/kg, baseline at grouping
  Tumor volume (mm^3) Day 0: 171 ± 29 mm^3
[2]; effect example 3.1.3, 5 mg/kg (ADC-1 also 10 mg/kg), after 21 days
  tumor growth inhibition (in words): able to significantly inhibit tumor growth
[3]
  Tumor volume (mm^3) on day 35: 535 ± 60 mm^3
[3]; day 35
  T/C (%): 78.73%
  TGI (%): 29.24%
